The source of these data is paper PMC12055592, “Post-symptomatic NLRP3 inhibition rescues cognitive impairment and mitigates amyloid and tau driven neurodegeneration” (Npj Dementia, 2025).

Data set [1] is described as follows: Mouse brain pharmacokinetic study (brain-to-plasma partition). It is filed as in vivo. The settings on record: male, single oral dose 20 mg/kg. As for the experimental part:
Five groups of n = 3 male CD1 mice (weight 20–30 g, age 6–8 weeks old) were dosed by oral gavage with 20 mg/kg of VEN-02XX suspended in 0.5% w/v methylcellulose/0.1% w/v Tween 80, at a dose volume of 10 mL/kg. Food and water were available ad libitum to all animals. At a specific timepoint for each group (0.25, 1, 2, 4, and 8 h), 0.2 mL of blood was collected from the dorsal metatarsal vein and transferred into plastic micro centrifuge tubes with EDTA-K2 as anticoagulant, then animals were terminally anaesthetized with a rising concentration of CO2 gas for about 1 min, brains were collected and rinsed with cold PBS. […]
Concentrations of VEN-02XX in plasma and brain were determined by a LC-MS/MS assay. […] Two transitions were monitored for VEN-02XX and the more sensitive transition with less interference (397.1 –> 270.1) was used for quantification.
Pharmacokinetic parameters were determined by non-compartmental analysis using WinNonLin software (Phoenix^TM, version 8.3), and the following parameters were calculated from the plasma concentrations versus time data: T1/2, Cmax, Tmax, AUCinf, AUClast. When appropriate, the brain Kp was calculated as AUClast(brain)/AUClast(plasma). Free brain partition coefficient (Kpuu) was calculated using the free fraction in plasma and brain measured in a high throughput equilibrium dialysis assay.

Data set [2] concerns 5XFAD/Rubicon KO mice. Description: Immunoblotting of NeuN and MAP2 in cortical and hippocampal lysates of 5XFAD/Rubicon KO mice. In kind it is in vivo, mouse. The settings on record: 20 mg/kg vs vehicle, not statistically significant. Here is the method:
5XFAD/Rubicon KO mice received vehicle (0.5% w/v methylcellulose/0.1% w/v Tween® 80 in water) or VEN-02XX (0.01, 1, or 20 mg/kg) every day by oral gastric gavage for 9 weeks.
Ten ug of protein was separated by gel electrophoresis (one gel loaded with cortex samples and one gel loaded with hippocampus samples), on a 4–15% gradient Tris-glycine gel and transferred to PVDF membranes using the TransBlot Turbo semi-dry transfer system (Bio-Rad Laboratories, Hercules, CA). The membranes were blocked in Tris-buffered saline, 0.1% Tween 20 (1X TBST) with 5% milk for 1 h at room temperature followed by overnight incubation at 4 °C with primary antibodies (1:1000 rabbit anti-NeuN [EMD Millipore, Burlington, MA] and 1:10,000 rabbit anti-Vinculin [Cell Signaling, Boston, MA]) diluted in TBST with 1% milk. For the complete list of antibodies please reference Supplementary Table 2. The next day, membranes were washed three times with 1XTBST for 10 min before incubation with HRP-conjugated secondary antibody (1:500 goat anti-rabbit [Cedarlane Labs, Burlington, ON]) for 90 min at room temperature. Membranes were then washed three times with 1XTBST for 10 min and developed with Pierce ECL western blotting substrate (Thermo Fisher Scientific) and visualized on a ChemiDoc imaging system (Bio-Rad Laboratories). […]
In general terms: In western blotting, separated proteins are transferred to a membrane and probed.

For data set [3], the system named is NLRC4. Description: NLRC4 in vitro selectivity assay (THP1-Null2 cells, Needle-Tox, IL-1β). In kind it is cell-based. As to conditions: n = 2; top concentration 50 µM.

As usually defined, the Kp is the ratio of the level in a tissue or fluid to that in plasma or blood. As to `CC(C)(O)CNc1nnc(-c2ccc(Cl)cc2C(F)(F)F)c2ccncc12` [VEN-02XX], the Kp in data set [1] (CD1, brain and plasma (total), AUClast (total drug), read-out: total brain-to-plasma partition coefficient, Kp) came to 0.86. For the same compound, the Kp uu in data set [1] (CD1, brain and plasma (unbound), AUClast (free drug), read-out: unbound brain-to-plasma partition coefficient, Kp,uu brain) is 0.39. Also, in data set [2], the “MAP2 expression (immunoblot, normalized to vinculin)” value is “improved MAP2 levels” and the “NeuN protein expression (immunoblot, normalized to vinculin)” value is listed as “consistent improvements in overall NeuN protein expression”. In data set [3], the “block of IL-1β release downstream of NLRC4” value was “inability to block IL-1β release”.
